Reference: US20230348376A1 (TEIJIN PHARMA LIMITED, priority 2020, published 2023)

Target: T1, human VDR (Homo sapiens, UniProt P11473)
T1 sequence (P11473 1-427): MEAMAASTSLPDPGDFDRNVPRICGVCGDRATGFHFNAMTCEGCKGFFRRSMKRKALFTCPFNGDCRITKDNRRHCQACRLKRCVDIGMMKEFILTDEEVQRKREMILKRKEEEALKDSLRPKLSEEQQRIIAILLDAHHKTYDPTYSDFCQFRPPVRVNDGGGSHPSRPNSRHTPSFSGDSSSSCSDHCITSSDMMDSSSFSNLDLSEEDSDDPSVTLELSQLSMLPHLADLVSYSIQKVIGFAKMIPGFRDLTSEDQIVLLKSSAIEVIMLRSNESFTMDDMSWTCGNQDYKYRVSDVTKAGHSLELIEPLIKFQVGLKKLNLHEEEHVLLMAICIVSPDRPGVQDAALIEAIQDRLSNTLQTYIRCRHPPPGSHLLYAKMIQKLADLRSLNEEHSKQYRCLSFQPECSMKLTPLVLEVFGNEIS
T1 sequence (P19793 1-462 partner): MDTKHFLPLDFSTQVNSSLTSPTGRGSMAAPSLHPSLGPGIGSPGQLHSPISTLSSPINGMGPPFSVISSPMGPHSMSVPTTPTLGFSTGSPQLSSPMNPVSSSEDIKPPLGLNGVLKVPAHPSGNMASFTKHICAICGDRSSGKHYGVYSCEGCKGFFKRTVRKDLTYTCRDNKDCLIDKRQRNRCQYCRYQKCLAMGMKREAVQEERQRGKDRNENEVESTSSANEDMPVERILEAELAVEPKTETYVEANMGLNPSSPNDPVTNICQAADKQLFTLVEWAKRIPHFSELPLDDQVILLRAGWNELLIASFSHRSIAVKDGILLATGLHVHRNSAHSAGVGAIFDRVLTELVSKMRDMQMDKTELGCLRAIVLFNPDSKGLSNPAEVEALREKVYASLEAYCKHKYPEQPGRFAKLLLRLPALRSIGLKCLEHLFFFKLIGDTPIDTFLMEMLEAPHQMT
Assay: Evaluation of VDR transcription activity in human osteoblasts (HOS cells), luciferase reporter
Details: Activity (EC50, VDR transcription activity), HOS cells transfected with human VDR, human RXRα and DR3 luciferase reporter; 21 hours

Row | EC50 | SMILES
1 | 1 to 10 nM | C=C1/C(=C\C=C2/CCC[C@]3(C)[C@@H]([C@@H](C)CN4CCC(C(F)F)CC4)CC[C@@H]23)C[C@@H](O)[C@H](C)[C@@H]1O [Compound C020, (1R,2S,3S,Z)-5-(2-((1R,3aS,7aR,E)-1-((R)-1-(4-(difluoromethyl)piperidin-1-yl)propan-2-yl)-7a-methyloctahydro-4H-inden-4-ylidene)ethylidene)-2-methyl-4-methylenecyclohexane-1,3-diol]
2 | 10 to 100 nM | C=C1/C(=C\C=C2/CCC[C@]3(C)[C@@H]([C@H](C)CN4CCO[C@H](C(F)F)C4)CC[C@@H]23)C[C@@H](O)C[C@@H]1O [Compound D005, (1R,3S,Z)-5-(2-((1R,3aS,7aR,E)-1-((S)-1-((S)-2-(difluoromethyl)morpholino)propan-2-yl)-7a-methyloctahydro-4H-inden-4-ylidene)ethylidene)-4-methylenecyclohexane-1,3-diol]
3 | 1 to 10 nM | C=C1[C@H](O)CC(=C/C=C2\CCC[C@]3(C)[C@@H]([C@H](C)CN4CC[C@H](OC(F)F)C4)CC[C@@H]23)C[C@H]1O [Compound B049, (1R,3R)-5-(2-((1R,3aS,7aR,E)-1-((S)-1-((S)-3-(difluoromethoxy)pyrrolidin-1-yl)propan-2-yl)-7a-methyloctahydro-4H-inden-4-ylidene)ethylidene)-2-methylenecyclohexane-1,3-diol]
4 | 10 to 100 nM | C[C@H](CN1CC[C@H](C(C)(F)F)C1)[C@H]1CC[C@H]2/C(=C/C=C3C[C@@H](O)C[C@H](O)C3)CCC[C@]12C [Compound B030, (1R,3R)-5-(2-((1R,3aS,7aR,E)-1-((S)-1-((S)-3-(1,1-difluoroethyl)pyrrolidin-1-yl)propan-2-yl)-7a-methyloctahydro-4H-inden-4-ylidene)ethylidene)cyclohexane-1,3-diol]
5 | 100 to 1000 nM | C=C1/C(=C\C=C2/CCC[C@]3(C)[C@@H]([C@H](C)CN4CCCC(C)(OC)C4)CC[C@@H]23)C[C@@H](O)C[C@@H]1O (single isomer, unassigned) [Compound C043b]
6 | 1 to 10 nM | C=C1[C@H](O)CC(=C/C=C2\CCC[C@]3(C)[C@@H]([C@H](C)CCN4CCO[C@H](C(F)F)C4)CC[C@@H]23)C[C@H]1O [Compound D033, (1R,3R)-5-(2-((1R,3aS,7aR,E)-1-((R)-4-((S)-2-(difluoromethyl)morpholino)butan-2-yl)-7a-methyloctahydro-4H-inden-4-ylidene)ethylidene)-2-methylenecyclohexane-1,3-diol]
7 | 100 to 1000 nM | C[C@H](CN1CC(OC(F)(F)F)C1)[C@H]1CC[C@H]2/C(=C/C=C3C[C@@H](O)C[C@H](O)C3)CCC[C@]12C [Compound A013]
8 | < 1 nM | C=C1/C(=C\C=C2/CCC[C@]3(C)[C@@H]([C@H](C)CN4CCCC(C)(O)C4)CC[C@@H]23)C[C@@H](O)C[C@@H]1O (single isomer, unassigned) [Compound C037a]
9 | 100 to 1000 nM | C[C@H](CN1CCC[C@H](CC(F)F)C1)[C@H]1CC[C@H]2/C(=C/C=C3C[C@@H](O)C[C@H](O)C3)CCC[C@]12C [Compound C051, (1R,3R)-5-(2-((1R,3aS,7aR,E)-1-((S)-1-((R)-3-(2,2-difluoroethyl)piperidin-1-yl)propan-2-yl)-7a-methyloctahydro-4H-inden-4-ylidene)ethylidene)cyclohexane-1,3-diol]
10 | 1 to 10 nM | C=C1/C(=C\C=C2/CCC[C@]3(C)[C@@H]([C@H](C)CN4CC[C@@H](CC(F)F)C4)CC[C@@H]23)C[C@@H](O)[C@H](C)[C@@H]1O [Compound B039, (1R,2S,3S,Z)-5-(2-((1R,3aS,7aR,E)-1-((S)-1-((S)-3-(2,2-difluoroethyl)pyrrolidin-1-yl)propan-2-yl)-7a-methyloctahydro-4H-inden-4-ylidene)ethylidene)-2-methyl-4-methylenecyclohexane-1,3-diol]
11 | < 1 nM | C=C1[C@H](O)CC(=C/C=C2\CCC[C@]3(C)[C@@H]([C@H](C)CN4CCC[C@](C)(O)C4)CC[C@@H]23)C[C@H]1O [Compound C041, (1R,3R)-5-(2-((1R,3aS,7aR,E)-1-((S)-1-((S)-3-hydroxy-3-methylpiperidin-1-yl)propan-2-yl)-7a-methyloctahydro-4H-inden-4-ylidene)ethylidene)-2-methylenecyclohexane-1,3-diol]
12 | 1 to 10 nM | C=C1C(O)CC(=C/C=C2\CCC[C@]3(C)[C@@H]([C@H](C)CCN4CCOC5(CC5)C4)CC[C@@H]23)C[C@H]1O (stereo in doubt) [Compound D026, (1R,3S)-5-(2-((1R,3aS,7aR,E)-1-((R)-4-(4-oxa-7-azaspiro[2.5]octan-7-yl)butan-2-yl)-7a-methyloctahydro-4H-inden-4-ylidene)ethylidene)-2-methylenecyclohexane-1,3-diol]
13 | 10 to 100 nM | CC[C@@H]1CCN(C[C@@H](C)[C@H]2CC[C@H]3/C(=C/C=C4C[C@@H](O)C[C@H](O)C4)CCC[C@]23C)C1 [Compound B008, (1R,3R)-5-(2-((1R,3aS,7aR,E)-1-((S)-1-((R)-3-ethylpyrrolidin-1-yl)propan-2-yl)-7a-methyloctahydro-4H-inden-4-ylidene)ethylidene)cyclohexane-1,3-diol]
14 | 10 to 100 nM | C=C1[C@H](O)CC(=C/C=C2\CCC[C@]3(C)[C@@H]([C@H](C)CN4CC(C(C)(F)F)C4)CC[C@@H]23)C[C@H]1O [Compound A007, (1R,3R)-5-(2-((1R,3aS,7aR,E)-1-((S)-1-(3-(1,1-difluoroethyl)azetidin-1-yl)propan-2-yl)-7a-methyloctahydro-4H-inden-4-ylidene)ethylidene)-2-methylenecyclohexane-1,3-diol]
15 | 1 to 10 nM | C=C1/C(=C\C=C2/CCC[C@]3(C)[C@@H]([C@H](C)CN4CCC[C@H](C(F)F)C4)CC[C@@H]23)C[C@@H](O)[C@H](C)[C@@H]1O [Compound C050, (1R,2S,3 S,Z)-5-(2-((1R,3aS,7aR,E)-1-((S)-1-((S)-3-(difluoromethyl)piperidin-1-yl)propan-2-yl)-7a-methyloctahydro-4H-inden-4-ylidene)ethylidene)-2-methyl-4-methylenecyclohexane-1,3-diol]
16 | 1 to 10 nM | C=C1[C@H](O)CC(=C/C=C2\CCC[C@]3(C)[C@@H]([C@H](C)CN4CCC[C@H](C(F)F)C4)CC[C@@H]23)C[C@H]1O [Compound C049, (1R,3R)-5-(2-((1R,3aS,7aR,E)-1-((S)-1-((S)-3-(difluoromethyl)piperidin-1-yl)propan-2-yl)-7a-methyloctahydro-4H-inden-4-ylidene)ethylidene)-2-methylenecyclohexane-1,3-diol]
17 | 10 to 100 nM | C[C@H](CN1CC[C@H](CCC(F)F)C1)[C@H]1CC[C@H]2/C(=C/C=C3C[C@@H](O)C[C@H](O)C3)CCC[C@]12C [Compound B063, (1R,3R)-5-(2-((1R,3aS,7aR,E)-1-((S)-1-((S)-3-(3,3-difluoropropyl)pyrrolidin-1-yl)propan-2-yl)-7a-methyloctahydro-4H-inden-4-ylidene)ethylidene)cyclohexane-1,3-diol]
18 | 10 to 100 nM | C=C1[C@H](O)CC(=C/C=C2\CCC[C@]3(C)[C@@H]([C@H](C)CN4CCC(C(F)F)CC4)CC[C@@H]23)C[C@H]1O [Compound C015]
19 | 10 to 100 nM | C=C1/C(=C\C=C2/CCC[C@]3(C)[C@@H]([C@H](C)CN4CCC(C(F)(F)F)CC4)CC[C@@H]23)C[C@@H](O)[C@H](C)[C@@H]1O [Compound C010, (1R,2S,3S,Z)-2-methyl-5-(2-((1R,3aS,7aR,E)-7a-methyl-1-((S)-1-(4-(trifluoromethyl)piperidin-1-yl)propan-2-yl)octahydro-4H-inden-4-ylidene)ethylidene)-4-methylenecyclohexane-1,3-diol]
20 | 1 to 10 nM | C[C@H](CN1CC(O)(C(F)(F)F)C1)[C@H]1CC[C@H]2/C(=C/C=C3C[C@@H](O)C[C@H](O)C3)CCC[C@]12C [Compound A010, (1R,3R)-5-(2-((1R,3aS,7aR,E)-1-((S)-1-(3-hydroxy-3-(trifluoromethyl)azetidin-1-yl)propan-2-yl)-7a-methyloctahydro-4H-inden-4-ylidene)ethylidene)cyclohexane-1,3-diol]
21 | 1 to 10 nM | C=C1C(O)CC(=C/C=C2\CCC[C@]3(C)[C@@H]([C@H](C)CN4CC[C@@H](OC(F)(F)F)C4)CC[C@@H]23)C[C@H]1O (stereo in doubt) [Compound B068, (1R,3S)-5-(2-((1R,3aS,7aR,E)-7a-methyl-1-((S)-1-((R)-3-(trifluoromethoxy)pyrrolidin-1-yl)propan-2-yl)octahydro-4H-inden-4-ylidene)ethylidene)-2-methylenecyclohexane-1,3-diol]

Same assay, conditions: read-out: Activity (EC50, VDR transcription activity); HOS cells transfected with human VDR, human RXRα and DR3 luciferase reporter; 21 hours

Row | EC50 | SMILES
22 | < 1 nM | C=C1[C@H](O)CC(=C/C=C2\CCC[C@]3(C)[C@@H]([C@H](C)CN4CCC(O)(C(F)(F)F)C4)CC[C@@H]23)C[C@H]1O (single isomer, unassigned) [Compound B046b]
